Test results published in patent US20080306076A1, “MODULATION OF CHEMOSENSORY RECEPTORS AND LIGANDS ASSOCIATED THEREWITH” (SENOMYX, INC., priority 2007, published 2008).

How the values were obtained:
hT1R1/hT1R3 = target: T1, hT1R1/hT1R3 (Homo sapiens, UniProt Q7RTX1); experiment: In vitro hT1R1/hT1R3 enhancement assay (FLIPR): shift of the monosodium glutamate EC50 (EC50R); type: cell-based; conditions: EC50 of monosodium glutamate without / with test compound
T1 construct: expressed in transfected cells; host or cells: HEK293 derivative stably expressing Gα15, clone I-17, mifepristone-induced
T1 sequence (Q7RTX1 21-841): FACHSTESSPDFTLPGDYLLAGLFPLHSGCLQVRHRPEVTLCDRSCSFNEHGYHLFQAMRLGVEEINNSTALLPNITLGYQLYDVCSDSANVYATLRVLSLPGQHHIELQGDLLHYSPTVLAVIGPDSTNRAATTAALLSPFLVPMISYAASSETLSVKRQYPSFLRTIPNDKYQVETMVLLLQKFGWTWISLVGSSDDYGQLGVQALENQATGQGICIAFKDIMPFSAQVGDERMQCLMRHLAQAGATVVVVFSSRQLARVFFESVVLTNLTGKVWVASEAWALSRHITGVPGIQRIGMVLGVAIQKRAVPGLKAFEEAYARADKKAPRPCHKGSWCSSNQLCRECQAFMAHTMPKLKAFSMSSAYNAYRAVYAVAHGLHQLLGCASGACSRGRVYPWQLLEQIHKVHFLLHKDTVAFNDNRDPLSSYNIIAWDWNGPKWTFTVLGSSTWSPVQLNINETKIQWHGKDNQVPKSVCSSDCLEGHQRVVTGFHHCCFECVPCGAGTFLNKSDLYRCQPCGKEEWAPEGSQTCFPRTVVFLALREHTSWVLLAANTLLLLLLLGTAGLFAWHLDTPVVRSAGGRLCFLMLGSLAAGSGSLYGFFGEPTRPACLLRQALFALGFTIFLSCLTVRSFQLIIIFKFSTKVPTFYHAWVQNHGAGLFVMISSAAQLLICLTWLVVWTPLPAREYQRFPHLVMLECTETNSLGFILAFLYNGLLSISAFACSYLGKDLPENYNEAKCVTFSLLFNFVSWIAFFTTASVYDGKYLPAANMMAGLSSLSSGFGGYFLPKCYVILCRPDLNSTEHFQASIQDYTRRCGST
T1 sequence (Q7RTX0 21-852 partner): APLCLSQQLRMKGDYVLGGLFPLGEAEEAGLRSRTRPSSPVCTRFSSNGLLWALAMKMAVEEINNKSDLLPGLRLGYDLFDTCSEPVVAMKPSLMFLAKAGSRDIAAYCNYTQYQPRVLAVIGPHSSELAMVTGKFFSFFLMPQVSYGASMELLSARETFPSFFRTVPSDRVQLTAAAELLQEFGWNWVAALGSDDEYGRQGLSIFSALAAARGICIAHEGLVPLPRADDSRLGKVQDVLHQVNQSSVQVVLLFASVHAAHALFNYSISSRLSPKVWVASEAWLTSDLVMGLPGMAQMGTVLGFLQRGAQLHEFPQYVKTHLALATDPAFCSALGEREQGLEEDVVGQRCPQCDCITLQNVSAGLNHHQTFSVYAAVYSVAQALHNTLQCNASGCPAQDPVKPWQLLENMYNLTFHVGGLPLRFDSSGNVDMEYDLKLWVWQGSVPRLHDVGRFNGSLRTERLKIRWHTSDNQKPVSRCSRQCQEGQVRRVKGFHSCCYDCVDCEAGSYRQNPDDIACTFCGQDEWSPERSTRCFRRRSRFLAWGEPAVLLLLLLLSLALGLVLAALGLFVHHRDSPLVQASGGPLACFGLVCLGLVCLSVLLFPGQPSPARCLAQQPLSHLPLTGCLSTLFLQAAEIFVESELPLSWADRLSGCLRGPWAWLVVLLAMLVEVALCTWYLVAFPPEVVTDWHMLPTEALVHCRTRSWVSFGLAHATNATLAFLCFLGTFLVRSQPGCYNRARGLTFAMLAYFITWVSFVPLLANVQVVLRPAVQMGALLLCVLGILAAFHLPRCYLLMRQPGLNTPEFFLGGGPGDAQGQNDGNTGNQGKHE
Method: An HEK293 cell line derivative (See e.g., Chandrashekar, et al., Cell (2000) 100: 703-711) which stably expresses Gα15 and hT1R1/hT1R3 under an inducible promoter (see e.g., International Publication No. WO 03/001876 A2) was used in association with identifying compounds with umami tasting properties.
Compounds were initially selected based on activity in the hT1R1/hT1R3-HEK293-Gα15 cell line. Activity was determined using an automated fluorometric imaging assay on a FLIPR instrument (Fluorometric Intensity Plate Reader, Molecular Devices, Sunnyvale, Calif.) (designated FLIPR assay). Cells from one clone (designated clone I-17) were seeded into 384-well plates (at approximately 48,000 cells per well) in a medium containing Dulbecco's modified Eagle's medium (DMEM) supplemented with GlutaMAX (Invitrogen, Carlsbad, Calif.), 10% dialyzed fetal bovine serum (Invitrogen, Carlsbad, Calif.), 100 Units/ml Penicillin G, 100 μg/ml Streptomycin (Invitrogen, Carlsbad, Calif.) and 60 pM mifepristone (to induce expression of hT1R1/hT1R3 (see e.g., International Publication No. WO 03/001876 A2).
I-17 cells were grown for 48 hours at 37° C. 1-17 cells were then loaded with the calcium dye Fluo-3AM (Molecular Probes, Eugene, Oreg.), 4 μM in a phosphate buffered saline (D-PBS) (Invitrogen, Carlsbad, Calif.), for 1.5 hours at room temperature. After replacement with 25 μl D-PBS, stimulation was performed in the FLIPR instrument and at room temperature by the addition of 25 μl D-PBS supplemented with different stimuli at concentrations corresponding to twice the desired final level.
Receptor activity was quantified by determining the maximal fluorescence increases (using a 480 nm excitation and 535 nm emission) after normalization to basal fluorescence intensity measured before stimulation. For dose-responses analysis, stimuli were presented in duplicates at 10 different concentrations ranging from 1.5 nM to 3 μM.
Activities were normalized to the response obtained with 60 mM monosodium glutamate, a concentration that elicits maximum receptor response. EC50s (concentration of compound that causes 50% activation of receptor) were determined using a non-linear regression algorithm, where the Hill slope, bottom asymptotes and top asymptotes were allow to vary. Identical results were obtained when analyzing the dose-response data using commercially available software for non-linear regression analysis such as GraphPad PRISM (San Diego, Calif.).
Experiments were also conducted to determine if test compounds can enhance the effect of monosodium glutamate on hT1R1/hT1R3 activity. In this assay, increasing concentrations of monosodium glutamate (ranging from 12 μM to 81 mM) were presented, in duplicates, in the presence or absence of a fixed concentration of the test compound. Typical compound concentrations tested were 100 μM, 30 μM, 10 μM, 3 μM, 1 μM, 0.3 μM, 0.1 μM and 0.03 μM. The relative efficacy of compounds at enhancing the receptor was determined by the calculating the magnitude of a shift in the EC50 for monosodium glutamate.
Enhancement was defined as a ratio (EC50R) corresponding to the EC50 of monosodium glutamate, determined in the absence of the test compound, divided by the EC50 of monosodium glutamate, determined in the presence of the test compound. In some embodiments, compounds have an EC50R between about 0.7 and about 100. In other embodiments, compounds have an EC50R between about 1.25 and about 75. In still other embodiments, compounds have an EC50R between about 1.50 and about 60. Assay results for compounds are disclosed in the table below.

un-induced I-17 cells = experiment: FLIPR assay on un-induced I-17 cells (no receptor expression); type: cell-based; conditions: monosodium glutamate
Method: In order to determine the dependency of hT1R1/hT1R3 for the cell response to different stimuli, selected compounds were subjected to a similar analysis on I-17 cells that had not been induced for receptor expression with mifepristone (designated as un-induced I-17 cells). […] Compounds were presented to un-induced umami cells at […]—or three times the maximum stimulation used in the dose-response analysis.

Compound | EC50 ratio (hT1R1/hT1R3; test compound 30 μM) | EC50 ratio (hT1R1/hT1R3; test compound 100 μM) | functional response in FLIPR assay (un-induced I-17 cells)
Cc1cccc(C(=O)Nc2nc(O)c3ncn([C@@H]4O[C@H](COP(=O)(O)O)[C@@H](O)[C@H]4O)c3n2)c1 [Compound 4] | 1.07 | 1.19 | –
COc1ccccc1C(=O)Nc1nc(O)c2ncn([C@@H]3O[C@H](COP(=O)(O)O)[C@@H](O)[C@H]3O)c2n1 [Compound 1] | 1.67 | 12.91 | –
O=C(COc1ccccc1)Nc1nc(O)c2ncn([C@@H]3O[C@H](COP(=O)(O)O)[C@@H](O)[C@H]3O)c2n1 [Compound 5] | 1.21 | 2.22 | –
N[C@@H](CCC(=O)O)C(=O)[O-].[Na+] [monosodium glutamate] | – | – | do not show any functional response
